Where two headings read alike, the source gives them in different places.
Tests used:
CDK6/Cyclin D1 = CDK6/Cyclin D1 (Homo sapiens, UniProt Q00534); test: NanoBRET live-cell target engagement, NanoLuc-CDK6/Cyclin D1 in HEK-293; format: binding
CDK18/Cyclin Y = CDK18/Cyclin Y (Homo sapiens, UniProt Q07002); test: NanoBRET live-cell target engagement, CDK18-NanoLuc/Cyclin Y in HEK-293; format: binding; settings: for Inhibition at 10µM (%) Average: average of replicates
[1] = 10µM, average of experiments, read-out: CDK6/D1 Inhibition at 10µM (%)
[2] = 10µM, independent experiment 1, read-out: CDK6/D1 Inhibition at 10µM (%)
[3] = 10µM, independent experiment 2, read-out: CDK6/D1 Inhibition at 10µM (%)
[4] = average (± SEM where n=3), read-out: CDK6/D1 IC50
[5] = independent experiment 1, read-out: CDK6/D1 IC50
[6] = independent experiment 2, read-out: CDK6/D1 IC50
[7] = 10µM, average of experiments, read-out: CDK18/Y Inhibition at 10µM (%)
[8] = 10µM, independent experiment 1, read-out: CDK18/Y Inhibition at 10µM (%)
[9] = 10µM, independent experiment 2, read-out: CDK18/Y Inhibition at 10µM (%)
[10] = CDK6/D1, average (± SEM where n=3), read-out: IC50
[11] = CDK6/D1, experiment 1, read-out: IC50
[12] = CDK6/D1, experiment 2, read-out: IC50
[13] = CDK18/Y, average (± SEM where n=3), read-out: IC50
[14] = CDK18/Y, experiment 1, read-out: IC50
[15] = CDK18/Y, experiment 2, read-out: IC50
[16] = CDK6/D1, average, read-out: Inhibition at 10µM (%)
[17] = CDK6/D1, experiment 1, read-out: Inhibition at 10µM (%)
[18] = CDK6/D1, experiment 2, read-out: Inhibition at 10µM (%)
[19] = CDK6/D1, 10µM, average of replicates
[20] = CDK6/D1, n=3 average ± SEM, n=2 average to 2 significant figures, read-out: IC50 (nM) Average*
[21] = CDK6/D1, read-out: IC50 (nM) Replicate 1
[22] = CDK6/D1, read-out: IC50 (nM) Replicate 2
[23] = CDK18/Y, n=3 average ± SEM, n=2 average to 2 significant figures, read-out: IC50 (nM) Average*
[24] = CDK18/Y, read-out: IC50 (nM) Replicate 1
[25] = CDK18/Y, read-out: IC50 (nM) Replicate 2

Sequence of CDK6/Cyclin D1 (Q00534 whole entry): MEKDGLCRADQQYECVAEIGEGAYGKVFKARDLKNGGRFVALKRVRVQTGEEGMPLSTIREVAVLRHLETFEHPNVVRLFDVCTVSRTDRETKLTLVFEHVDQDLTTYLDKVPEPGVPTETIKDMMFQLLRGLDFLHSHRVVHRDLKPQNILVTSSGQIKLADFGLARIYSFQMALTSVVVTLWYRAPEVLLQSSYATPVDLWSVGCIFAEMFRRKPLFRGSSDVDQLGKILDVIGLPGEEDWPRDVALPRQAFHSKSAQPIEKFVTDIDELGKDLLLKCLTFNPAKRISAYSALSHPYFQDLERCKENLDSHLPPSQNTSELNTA
Sequence of CDK6/Cyclin D1 (P24385 whole entry partner): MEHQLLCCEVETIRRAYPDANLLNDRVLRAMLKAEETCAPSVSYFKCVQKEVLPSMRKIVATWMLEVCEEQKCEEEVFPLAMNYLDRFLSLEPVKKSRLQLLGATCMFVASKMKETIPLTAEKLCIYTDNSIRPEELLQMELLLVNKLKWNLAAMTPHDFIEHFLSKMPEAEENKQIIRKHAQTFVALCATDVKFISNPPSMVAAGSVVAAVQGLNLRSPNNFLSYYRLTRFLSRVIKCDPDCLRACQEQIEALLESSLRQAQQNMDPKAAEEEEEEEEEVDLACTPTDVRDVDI
Sequence of CDK18/Cyclin Y (Q07002 whole entry): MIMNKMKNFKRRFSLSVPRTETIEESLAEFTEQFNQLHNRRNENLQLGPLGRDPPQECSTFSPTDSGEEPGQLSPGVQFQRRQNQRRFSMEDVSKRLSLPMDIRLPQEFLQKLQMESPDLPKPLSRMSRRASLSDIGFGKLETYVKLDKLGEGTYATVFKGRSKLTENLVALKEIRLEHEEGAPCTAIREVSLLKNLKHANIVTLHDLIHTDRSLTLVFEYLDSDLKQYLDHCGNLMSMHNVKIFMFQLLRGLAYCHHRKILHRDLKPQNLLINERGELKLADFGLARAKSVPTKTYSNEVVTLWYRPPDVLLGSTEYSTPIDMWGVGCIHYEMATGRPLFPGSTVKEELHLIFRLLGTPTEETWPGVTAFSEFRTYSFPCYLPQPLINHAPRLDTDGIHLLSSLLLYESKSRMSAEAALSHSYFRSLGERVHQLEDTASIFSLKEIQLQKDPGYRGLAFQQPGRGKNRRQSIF
Sequence of CDK18/Cyclin Y (Q8ND76 whole entry partner): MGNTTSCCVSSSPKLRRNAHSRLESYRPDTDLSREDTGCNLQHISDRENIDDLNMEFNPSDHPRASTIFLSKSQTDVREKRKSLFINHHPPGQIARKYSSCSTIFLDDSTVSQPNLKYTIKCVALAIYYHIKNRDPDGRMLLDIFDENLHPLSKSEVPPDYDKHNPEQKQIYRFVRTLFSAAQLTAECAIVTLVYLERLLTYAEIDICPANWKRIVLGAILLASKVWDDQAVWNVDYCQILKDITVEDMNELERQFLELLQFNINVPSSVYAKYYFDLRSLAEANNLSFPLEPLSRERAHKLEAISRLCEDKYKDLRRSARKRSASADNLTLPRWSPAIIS

For CN1C/C=C/CCOc2cccc(c2)-c2ccnc(n2)Nc2cccc(c2)C1 [SB1317], the inhibition at 10 µM (CDK6/Cyclin D1; [1]) was 98.3%, the inhibition at 10 µM (CDK6/Cyclin D1; [2]) was 97.3% and the inhibition at 10 µM (CDK6/Cyclin D1; [3]) was 99.2%. It also gave an IC50 (CDK6/Cyclin D1; [4]) of 270 nM, an IC50 (CDK6/Cyclin D1; [5]) of 290 nM and an IC50 (CDK6/Cyclin D1; [6]) of 250 nM. The inhibition at 10 µM (CDK18/Cyclin Y; [7]) was 101%, the inhibition at 10 µM (CDK18/Cyclin Y; [8]) was 98.4% and the inhibition at 10 µM (CDK18/Cyclin Y; [9]) was 103%. For the same compound, the IC50 (CDK18/Cyclin Y; average (± SEM where n=3), read-out: CDK18/Y IC50) was 82 nM, the IC50 (CDK18/Cyclin Y; independent experiment 1, read-out: CDK18/Y IC50) was 99 nM and the IC50 (CDK18/Cyclin Y; independent experiment 2, read-out: CDK18/Y IC50) was 65 nM.

With CC(C)c1c2cc(-c3ccnc(N[C@H]4CC[C@H](NC5CCOCC5)CC4)n3)ccc2nn1C [LY2857785] the “Inhibition at 10µM (%)” value (CDK6/Cyclin D1; CDK6/D1, average) was 96.5%, the IC50 (CDK6/Cyclin D1; [10]) was 110 nM and the “Inhibition at 10µM (%)” value (CDK6/Cyclin D1; CDK6/D1, experiment 1) was 96.6%. The IC50 (CDK6/Cyclin D1; [11]) was 124 nM, the “Inhibition at 10µM (%)” value (CDK6/Cyclin D1; CDK6/D1, experiment 2) was 96.3% and the IC50 (CDK6/Cyclin D1; [12]) was 98 nM. The “Inhibition at 10µM (%)” value (CDK18/Cyclin Y; CDK18/Y, average) was 96.0%, the IC50 (CDK18/Cyclin Y; [13]) was 290 nM and the “Inhibition at 10µM (%)” value (CDK18/Cyclin Y; CDK18/Y, experiment 1) was 91.6%. For the same compound, the IC50 (CDK18/Cyclin Y; [14]) was 204 nM, the “Inhibition at 10µM (%)” value (CDK18/Cyclin Y; CDK18/Y, experiment 2) was 100.3% and the IC50 (CDK18/Cyclin Y; [15]) was 370 nM.

CC(C)c1cnn2c(NCc3ccccc3)cc(NC[C@H]3CCNC[C@@H]3O)nc12 [CT7001] gave an inhibition at 10 µM (CDK6/Cyclin D1; [16]) of 12.9%, an inhibition at 10 µM (CDK6/Cyclin D1; [17]) of 20.2% and an inhibition at 10 µM (CDK6/Cyclin D1; [18]) of 5.6%. For the same compound, the inhibition at 10 µM (CDK18/Cyclin Y; CDK18/Y, average, read-out: Inhibition at 10µM (%)) was 76.2%, the inhibition at 10 µM (CDK18/Cyclin Y; CDK18/Y, experiment 1, read-out: Inhibition at 10µM (%)) was 75.7% and the inhibition at 10 µM (CDK18/Cyclin Y; CDK18/Y, experiment 2, read-out: Inhibition at 10µM (%)) was 76.7%.

Compound CN1CC[C@H](c2c(O)cc(O)c3c(=O)cc(-c4ccccc4Cl)oc23)[C@H](O)C1 [Flavopiridol] has an inhibition at 10 µM (CDK6/Cyclin D1; [16]) of 86.6%, an inhibition at 10 µM (CDK6/Cyclin D1; [17]) of 83.3% and an inhibition at 10 µM (CDK6/Cyclin D1; [18]) of 89.9%.

CC(C)c1cnn2c(NCc3ccccc3)cc(N[C@@H](CO)[C@H](O)CO)nc12 [BS-194] was tested, and the “Inhibition at 10µM (%) Replicate 1” value (CDK6/Cyclin D1; CDK6/D1, 10µM) was 83.0%, the “Inhibition at 10µM (%) Replicate 2” value (CDK6/Cyclin D1; CDK6/D1, 10µM) was 87.3% and the “Inhibition at 10µM (%) Average” value (CDK6/Cyclin D1; [19]) was 85.2%. It also gave an IC50 (CDK6/Cyclin D1; [20]) of 430 nM, an IC50 (CDK6/Cyclin D1; [21]) of 270 nM and an IC50 (CDK6/Cyclin D1; [22]) of 580 nM. For the same compound, the “Inhibition at 10µM (%) Replicate 1” value (CDK18/Cyclin Y; CDK18/Y, 10µM) was 80.3%, the “Inhibition at 10µM (%) Replicate 2” value (CDK18/Cyclin Y; CDK18/Y, 10µM) was 90.8% and the “Inhibition at 10µM (%) Average” value (CDK18/Cyclin Y; CDK18/Y, 10µM) was 85.6%. The IC50 (CDK18/Cyclin Y; [23]) was 480 nM, the IC50 (CDK18/Cyclin Y; [24]) was 448 nM and the IC50 (CDK18/Cyclin Y; [25]) was 520 nM.

For CS(=O)(=O)N1CCC(NC(=O)c2[nH]ncc2NC(=O)c2c(Cl)cccc2Cl)CC1 [NVP-LCQ195], the “Inhibition at 10µM (%)” value (CDK6/Cyclin D1; CDK6/D1, average) was 99.2%, the IC50 (CDK6/Cyclin D1; [10]) was 15 nM and the “Inhibition at 10µM (%)” value (CDK6/Cyclin D1; CDK6/D1, experiment 1) was 98.6%. The IC50 (CDK6/Cyclin D1; [11]) was 18 nM, the “Inhibition at 10µM (%)” value (CDK6/Cyclin D1; CDK6/D1, experiment 2) was 99.9% and the IC50 (CDK6/Cyclin D1; [12]) was 12 nM. For the same compound, the “Inhibition at 10µM (%)” value (CDK18/Cyclin Y; CDK18/Y, average) was 97.0%, the IC50 (CDK18/Cyclin Y; [13]) was 240 nM and the “Inhibition at 10µM (%)” value (CDK18/Cyclin Y; CDK18/Y, experiment 1) was 93.5%. The IC50 (CDK18/Cyclin Y; [14]) was 310 nM, the “Inhibition at 10µM (%)” value (CDK18/Cyclin Y; CDK18/Y, experiment 2) was 100.6% and the IC50 (CDK18/Cyclin Y; [15]) was 166 nM.

CNC1CCN(C(=O)c2ccc(Nc3ncc(F)c(-c4cnc(C)n4C(C)C)n3)cc2)C1 (stereo not drawn) [AZD5597] was tested, and the “Inhibition at 10µM (%) Replicate 1” value (CDK6/Cyclin D1; CDK6/D1, 10µM) was 99.7%, the “Inhibition at 10µM (%) Replicate 2” value (CDK6/Cyclin D1; CDK6/D1, 10µM) was 100.6% and the “Inhibition at 10µM (%) Average” value (CDK6/Cyclin D1; [19]) was 100.1%. It also gave an IC50 (CDK6/Cyclin D1; [20]) of 8.3 nM, an IC50 (CDK6/Cyclin D1; [21]) of 10 nM and an IC50 (CDK6/Cyclin D1; [22]) of 6.5 nM. For the same compound, the “Inhibition at 10µM (%) Replicate 1” value (CDK18/Cyclin Y; CDK18/Y, 10µM) was 94.0%, the “Inhibition at 10µM (%) Replicate 2” value (CDK18/Cyclin Y; CDK18/Y, 10µM) was 101.0% and the “Inhibition at 10µM (%) Average” value (CDK18/Cyclin Y; CDK18/Y, 10µM) was 97.5%. It also gave an IC50 (CDK18/Cyclin Y; [23]) of 130 nM, an IC50 (CDK18/Cyclin Y; [24]) of 86 nM and an IC50 (CDK18/Cyclin Y; [25]) of 174 nM.

With CC(C)CC(=O)Nc1[nH]nc2c1CN(C(=O)C1CCN(C)CC1)C2(C)C [PHA-793887] the inhibition at 10 µM (CDK6/Cyclin D1; [1]) was 88.3%, the inhibition at 10 µM (CDK6/Cyclin D1; [2]) was 84.9% and the inhibition at 10 µM (CDK6/Cyclin D1; [3]) was 91.6%. For the same compound, the IC50 (CDK6/Cyclin D1; [4]) was 430 nM, the IC50 (CDK6/Cyclin D1; [5]) was 374 nM and the IC50 (CDK6/Cyclin D1; [6]) was 480 nM. It also gave an inhibition at 10 µM (CDK18/Cyclin Y; [7]) of 91.7%, an inhibition at 10 µM (CDK18/Cyclin Y; [8]) of 86.8% and an inhibition at 10 µM (CDK18/Cyclin Y; [9]) of 96.6%.

CCN1CCN(Cc2ccc(NC(=O)Nc3ccc(Oc4cc(NC)ncn4)cc3)cc2C(F)(F)F)CC1 [AST-487] showed an inhibition at 10 µM (CDK6/Cyclin D1; CDK6/D1, 10µM, average of replicates, read-out: Inhibition at 10µM (%) Average) of 50.9%, an inhibition at 10 µM (CDK6/Cyclin D1; CDK6/D1, 10µM, read-out: Inhibition at 10µM (%) Replicate 1) of 15.7% and an inhibition at 10 µM (CDK6/Cyclin D1; CDK6/D1, 10µM, read-out: Inhibition at 10µM (%) Replicate 2) of 86.2%.

For CCn1cnc2c(Nc3cccc(Cl)c3)nc(N[C@@H]3CCCC[C@@H]3N)nc21 [CGP74514A], the “Inhibition at 10µM (%)” value (CDK6/Cyclin D1; CDK6/D1, average) was 58.7%, the “Inhibition at 10µM (%)” value (CDK6/Cyclin D1; CDK6/D1, experiment 1) was 51.0% and the “Inhibition at 10µM (%)” value (CDK6/Cyclin D1; CDK6/D1, experiment 2) was 66.5%. For the same compound, the “Inhibition at 10µM (%)” value (CDK18/Cyclin Y; CDK18/Y, average) was 86.9%, the “Inhibition at 10µM (%)” value (CDK18/Cyclin Y; CDK18/Y, experiment 1) was 81.1% and the “Inhibition at 10µM (%)” value (CDK18/Cyclin Y; CDK18/Y, experiment 2) was 92.6%.

Source: PMC7265341, “Quantifying CDK inhibitor selectivity in live cells” (Nature Communications, 2020)
